This test in a line: zone of inhibition activity. It counts as cell-based. To be noted: compared with zn bacitracin.

Take Cu-zn bacitrate: the “zone of inhibition activity” value is “greater zone of inhibition activity than zn bacitracin”.

The values above are taken from patent US20140248221A1, “COMPOSITIONS FOR ORAL USE AND METHODS FOR TREATING THE ORAL MUCOSA, LIPS, AND PERIORAL REGIONS” (JR CHEM, LLC, priority 2011, published 2014).
